# Publication PMC7156724, “Potent BRD4 inhibitor suppresses cancer cell-macrophage interaction” (Nature Communications, 2020)
# Where “and” joins values, the source holds several entries; their conditions need not be identical. Equal values may be shown once.
# Assays:
# [1] = system: MDA-MB231 triple negative breast cancer (TNBC) cells; test: AlamarBlue assay, MDA-MB231; type: cell-based, human; conditions: for Cellular activity in TNBCs (MDA-MB231), alamarBlue: Fig.1f, replicates
# Procedure, shortened: (§1)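 BRD4 (BD1+BD2) binding to acetylated histone H4 was measured with a TR-FRET kit per the kit protocol. For the AlamarBlue assays, MDA-MB231, NCI-H211 and A375 cells were plated at ~30% confluence, adhered overnight and treated. Resazurin (0.3 mg/ml reagent) was added for 18 h and fluorescence read at ex 530/em 590 nm.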
# A375 human melanoma = A375 human melanoma xenograft tumor growth; type: in vivo, mouse; conditions: Fig.3e, Group 5, 1 mg/kg PO QD, 5 Days on, 2 Days off / week x3, individual animals
# Excerpt: PO, oral administration; QD, once daily; BID, twice daily. b–d Tumor growth curves for A2780 ovarian tumor (n = 5) (b), TMD8 large B cell lymphoma (n = 6) (c), and B16F10 melanoma (n = 5) (d) bearing mice treated with the indicated compounds once daily for 11-21 days. e, f Tumor growth curves for A375 melanoma (n = 6) (e), and patient-derived xenograft (PDX) of melanoma (n = 5) (f) bearing mice treated with the indicated compounds once daily (5 days on, 2 days off) for 21 days. For d–f, NHWD-870 used is NHWD-870-HCl synthesized using Suzuki coupling route. Data are presented as mean ± SEM in (a, b, d, f) and mean + SEM in (c, e). p values were calculated using two-tailed, unpaired t tests. *p < 0.05; **p < 0.01; ***p < 0.001. Source data are provided as a Source Data file.
# 4–6 weeks old female BALB/c nude mice were used for most experiments, with the exception of 6–8 weeks old female C57BL/6 mice were used for B16F10 experiments, and 6–8 weeks old male BALB/c nude mice and SD rats were used for pharmacokinetic experiments. All animals were purchased from Shanghai SIPPR-Bk Lab Animal Co., Ltd. All animals were housed under a regimen of 12 h light/12 h dark cycles and specific pathogen-free conditions. 5×10^6 NCI-H526, ES-2, MDA-MB231, A2780, A375, B16F10, and TMD-8 cells (0.1 ml) were injected subcutaneously into female nude mice. The melanoma patient-derived xenograft model was derived from a human melanoma sample (BRAF, NARS and NF1 wild type, and p53 mutant) removed from a patient in Xiangya Hospital. Surgically removed tumor fragments were implanted subcutaneously into female NSG mice. When the tumors grew to ~1000 mm^3, they were harvested and cryopreserved or immediately re-implanted for expansion or experiments. Mouse body weight and tumor sizes were measured every 3 days. Once the tumors grew to 150–200 mm^3, mice were treated with the compounds as described in the Figures. 1 × 10^6 A2780 cells (1 ml) were injected into the abdominal cavity of nude mice. Ascitic volume and tumor weight were measured by an electronic balance. All the procedures were evaluated and approved by the Institutional Animal Care and Use Committee of Central South University and Yale University. […]
# We apologize for not clearly labeling the experiments using compounds synthesized using Suzuki coupling method. In the revised manuscript, we modified the text to clearly mark the animal models in Fig 3d-f were tested using NHWD-870 synthesized using Suzuki […]
# compared the activity of NHWD-870 synthesized using Stille coupling route with the NHWD-870 synthesized from Suzuki coupling route (Reviewer Figure 1). […]
# activity and possible toxicity were identical.
# Reviewer Figure 1 NHWD-870 synthesized through Stille or Suzuki route has similar properties in vivo. Tumor bearing mice were treated with 2mg/kg of the indicated compounds, orally administrated once daily for 21 days. Shown are tumor growth curves (a) and body weight change (b) for A375 melanoma bearing mice. […]
# 986158 in terms of potency, but apart from with the A375 melanocyte cell line, the advance seems relatively moderate. With such similar compounds, the pharmacokinetic properties and ability to accumulate at the desired site is often more important. Figure S6d (prev. Fig. 3d) in the previous
# H526 tumors = test: Immunofluorescent staining of cleaved caspase 3 and Ki67 in H526 tumors; type: in vivo, mouse; conditions: treated H526 tumors, independent images
# Procedure: Immunofluorescence staining of tumor sections was performed according to the manufacturer’s instructions. Slides were imaged using a Zeiss Axiovert 200 fluorescence microscope (Carl Zeiss MicroImaging; Thornwood, NY), and images were captured using Openlab3 software (Imprecision, Lexington, MA). Cleaved caspase 3, Ki67, CSF1, and CD68 positive cells were counted with ImageJ version 1.52s[58].
# Supplementary Figure 10. NHWD-870 increased tumor apoptosis and inhibite d tumor proliferation.
# (a,b) Immunofluorescent staining of cleaved caspase 3 (apoptotic cells, red) and E-Cadherin (cancer cells, […]
# green) in vehicle, NHWD-870 or BMS-986158 treated H526 tumors from Figure 4a. Shown are […]
# representative images of cleaved caspase 3 positive cells (a) and quantification of cleaved caspase 3 positive […]
# cells (b). Scale bar is 30 μm. Data are presented as mean ± SEM from 6 independent images. p values were […]
# calculated using two-tailed, unpaired t tests. **, p<0.01; ***, p<0.001. (c,d) Immunofluorescent staining of […]
# Ki67 (proliferating cells, red) and E-Cadherin (cancer cells, green) in vehicle, NHWD-870 or BMS-986158 […]
# treated H526 tumors from (Figure 4a). Shown are representative images of Ki67 positive cells (c) and […]
# quantification of Ki67 positive cells (d). Scale bar is 30 μm. […]
# independent images. p values were calculated using two-tailed, unpaired t tests. *, p<0.05; ***, p<0.001. […]
# [2] = system: NCI-H211 small cell lung cancer (SCLC) cells; test: AlamarBlue assay, NCI-H211; type: cell-based; conditions: for Cellular activity in SCLCs (H211), alamarBlue: Fig.1e, replicates
# Procedure, shortened: as §1
# [3] = Body weight change of H526 SCLC tumor bearing mice; conditions: for Mouse body weight changes (%) from Day 0: 3mg/kg, QDx21D, 3 mg/kg
compound,measurement,setting,value
"Cc1nnn(C)c1-c1cnc2c3ccc(C(C)(C)O)cc3n([C@H](c3ccccc3)C3CCOCC3)c2c1 [BMS-986158, reference compound]","Cellular activity in TNBCs (MDA-MB231), alamarBlue",[1]; concentration 0.15,20.45 and 20.15
same,"Cellular activity in TNBCs (MDA-MB231), alamarBlue",[1]; concentration 0.6,51.35 and 50.6
same,"Cellular activity in TNBCs (MDA-MB231), alamarBlue",[1]; concentration 1,73.39 and 72.09
same,"Cellular activity in TNBCs (MDA-MB231), alamarBlue",[1]; concentration 1.5,83.55 and 84.39
same,"Cellular activity in TNBCs (MDA-MB231), alamarBlue",[1]; concentration 2,88.19 and 87.76
same,"Cellular activity in TNBCs (MDA-MB231), alamarBlue",[1]; concentration 2.5,88.65 and 88.13
same,"Cellular activity in TNBCs (MDA-MB231), alamarBlue",[1]; concentration 3,90.46 and 90.37
same,"Cellular activity in TNBCs (MDA-MB231), alamarBlue",[1]; concentration -0.3,6.95 and 6.37
same,"Cellular activity in TNBCs (MDA-MB231), alamarBlue",[1]; concentration -0.9,4.15 and 1.05
same,IC50,"[1]; Homo sapiens, MDA-MB-231, 72 h, 72 h treatment, nM, read-out: IC50, cellular activity in MDA-MB231 (alamarBlue)",5 nM
same,Tumor volume,A375 human melanoma; day 0,150.774 mm3 and 118.553 mm3 and 191.653 mm3 and 150.802 mm3 and 127.386 mm3 and 173.315 mm3
same,Tumor volume,A375 human melanoma; day 4,190.606 mm3 and 233.18 mm3 and 278.289 mm3 and 235.064 mm3 and 184.498 mm3 and 135.54 mm3
same,Tumor volume,A375 human melanoma; day 7,243.772 mm3 and 508.815 mm3 and 374.344 mm3 and 456.749 mm3 and 169.114 mm3 and 146.329 mm3
same,Tumor volume,A375 human melanoma; day 11,541.178 mm3 and 982.065 mm3 and 955.744 mm3 and 627.932 mm3 and 275.862 mm3 and 357.353 mm3
same,Tumor volume,A375 human melanoma; day 14,840.395 mm3 and 1426.45 mm3 and 1137.31 mm3 and 1074.5 mm3 and 373.109 mm3 and 473.708 mm3
same,Tumor volume,A375 human melanoma; day 18,1260.47 mm3 and 1267.54 mm3 and 1188.69 mm3 and 1129.05 mm3 and 402.127 mm3 and 719.097 mm3
same,Tumor volume,A375 human melanoma; day 21,1603.7 mm3 and 1878.69 mm3 and 1789.35 mm3 and 1645.42 mm3 and 683.962 mm3 and 956.808 mm3
same,% of KI67 (Ki67 positive cells),H526 tumors,15% and 17% and 13% and 16% and 12%
same,"Cellular activity in SCLCs (H211), alamarBlue",[2]; concentration 0.0169701,0.078 and 7.88
same,"Cellular activity in SCLCs (H211), alamarBlue",[2]; concentration 0.0398488,0.019 and 6.06
same,"Cellular activity in SCLCs (H211), alamarBlue",[2]; concentration 0.137272,0.036 and 13.2
same,"Cellular activity in SCLCs (H211), alamarBlue",[2]; concentration 0.614394,28.16 and 35.58
same,"Cellular activity in SCLCs (H211), alamarBlue",[2]; concentration 1.09152,74.14 and 79.88
same,"Cellular activity in SCLCs (H211), alamarBlue",[2]; concentration 1.56864,88.17 and 88.8
same,"Cellular activity in SCLCs (H211), alamarBlue",[2]; concentration 2.04576,89.55 and 89.3
same,"Cellular activity in SCLCs (H211), alamarBlue",[2]; concentration 3,86.89 and 89.73
same,"Cellular activity in SCLCs (H211), alamarBlue",[2]; concentration column prints 2.52288,87.67 and 88.48
same,IC50,"[2]; Homo sapiens, NCI-H211, 72 h, 72 h treatment, nM, read-out: IC50, cellular activity in NCI-H211 (alamarBlue)",6.6 nM
same,Body weight change (%),"[3]; 3mg/kg,QD, day 0 and day 20 or the last available data point, individual mice",-8.559% and -23.2889% and -19.9501% and -12.3957%
same,Mouse body weight changes (%) from Day 0,"[3]; Day 3, individual mice",-2.33% and 1.06% and -4.40% and 1.07% and 0.98% and -1.46%
same,Mouse body weight changes (%) from Day 0,"[3]; Day 7, individual mice",-0.51% and -2.62% and -8.04% and -1.69% and -7.56% and -3.13%
same,Mouse body weight changes (%) from Day 0,"[3]; Day 10, individual mice",0.08% and -4.17% and 1.65% and -15.38% and -17.07% and -3.30%
same,Mouse body weight changes (%) from Day 0,"[3]; Day 14, individual mice",-5.26% and -0.68% and -6.36% and 0.13% and -8.04% and -3.28%
same,Mouse body weight changes (%) from Day 0,"[3]; Day 17, individual mice",-6.72% and -1.06% and -1.00% and -0.31% and -23.29% and -5.11%
same,Mouse body weight changes (%) from Day 0,"[3]; Day 20, individual mice",-12.40% and -8.56% and -1.00% and 1.16% and -19.95%
same,body weight loss,"[3]; H526 SCLC tumor bearing mice, 3mg/kg QD",about 11%
